Values quoted from earlier work in article PMC4594385 (Journal of Medical Physics / Association of Medical …, 2015).

Conditions: compared with femur uptake at 4 h; ref Banerjee et al. [1]

**Q.** With `O=P([O-])(O)CN(CCN(CP(=O)([O-])O)CP(=O)(O)O)CP(=O)([O-])O.[153Sm+3]` [^153Sm-EDTMP] as the compound, how does the Bone uptake read?
**A.** The Bone uptake was 3.72 %ID/g.
